The record followed here is patent publication US12559529B2, “NPY2 receptor agonists” (Boehringer Ingelheim International GmbH, priority 2019, dated 2026).

Experiment [1] deals with T1, Human Neuropeptide Y2 Receptor (Homo sapiens, UniProt P49146).
T1 construct: purchased CHEMICON HTS066M
T1 sequence (P49146 1-381): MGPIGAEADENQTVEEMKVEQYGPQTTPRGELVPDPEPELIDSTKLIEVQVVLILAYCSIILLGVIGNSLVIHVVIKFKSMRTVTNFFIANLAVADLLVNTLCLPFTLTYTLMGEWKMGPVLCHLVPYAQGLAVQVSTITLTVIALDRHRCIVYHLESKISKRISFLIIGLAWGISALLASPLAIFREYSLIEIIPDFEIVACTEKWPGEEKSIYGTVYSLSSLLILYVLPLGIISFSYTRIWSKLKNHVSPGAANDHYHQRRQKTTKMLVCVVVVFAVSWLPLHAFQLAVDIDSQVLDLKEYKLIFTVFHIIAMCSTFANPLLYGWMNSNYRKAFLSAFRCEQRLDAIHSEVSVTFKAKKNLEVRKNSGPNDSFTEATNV
Put plainly: Radioligand binding competition assay (RLB). Particulars: Table 3; human 125I-PYY (1-36) 0.02 nM, Y2 receptor membranes; read-out: Ki. The essentials: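 Peptide dilutions made in pH 7.4 HEPES assay buffer with 0.2% ovalbumin; human Y2 receptor membranes added at 0.5 μg protein/well; plates shaken 2 h at room temperature; reaction stopped by vacuum filtration onto PEI-treated GF/C filters with ice-cold high-salt washes; radioactivity counted by scintillation.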

Experiment [2] relates to normal NMRI mice. Put plainly: Effect on acute food intake in normal NMRI mice. Particulars: male NMRI mice, 10 nmol/kg subcutaneously once. It counts as in vivo. In outline:
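A single 10 nmol/kg s.c. peptide dose was given 1 h before lights-off to male NMRI mice fasted from 6 h before the night phase (n=7-8). Intake was recorded continuously by microchip-identified HM-2 feeding channels. Values are normalized to vehicle controls (50 mM phosphate buffer pH7 with 5% Mannitol).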

What is called Ki is a dissociation constant, usually derived from enzyme kinetics or from competition with a known ligand.

In the case of `CC(C)CC(=O)N[C@@H](C)C(=O)N1CCC[C@H]1C(=O)N[C@@H](C)C(=O)N[C@@H](CCCCNC(=O)COCCOCCNC(=O)COCCOCCNC(=O)CC[C@H](NC(=O)CCCCCCCCCCCCCCCCC(=O)O)C(=O)O)C(=O)N1CCC[C@H]1C(=O)N[C@@H](CCC(=O)O)C(=O)N[C@@H](CCC(=O)O)C(=O)N[C@@H](CC(=O)O)C(=O)N[C@@H](C)C(=O)N[C@@H](CO)C(=O)N1CCC[C@H]1C(=O)N[C@@H](CCC(=O)O)C(=O)N[C@@H](CCC(=O)O)C(=O)N[C@@H](CC(C)C)C(=O)N[C@@H](CCC(N)=O)C(=O)N[C@@H](CCCNC(=N)N)C(=O)N[C@@H](Cc1ccc(O)cc1)C(=O)N[C@@H](Cc1ccc(O)cc1)C(=O)N[C@H](C(=O)N[C@@H](CCC(=O)O)C(=O)N[C@@H](CC(C)C)C(=O)N[C@@H](CCCNC(=N)N)C(=O)N[C@@H](Cc1c[nH]cn1)C(=O)N[C@@H](Cc1ccc(O)cc1)C(=O)N[C@@H](Cc1ccc(O)cc1)C(=O)N[C@@H](CC(N)=O)C(=O)N[C@@H](Cc1c[nH]c2ccccc12)C(=O)N[C@@H](CC(C)C)C(=O)N[C@H](C(=O)N[C@@H](CCCNC(=N)N)C(=O)N[C@@H](CCC(N)=O)C(=O)N[C@@H](CCCNC(=N)N)C(=O)N[C@@H](Cc1ccc(O)cc1)C(N)=O)[C@@H](C)O)C(C)C` [Compound 173, N{alpha-4}-(3-methylbutanoyl)-N{epsilon-7}-[2-(2-{2-[2-(2-{2-[(4S)-4-carboxy-4-(17-carboxyheptadecanamido)butanamido]ethoxy}ethoxy)acetamido]ethoxy}ethoxy)acetamido]-[4A,6A,7K,9E,18Q,22V,23E,28Y,30W,31L]hPYY (4-36)], in experiment [1], the inhibition constant (Ki) is 1.71 nM. Moreover, in experiment [2], the “Acute Food Intake 24 h [% vehicle]” value turned out to be 49 % vehicle.
Turning to `CC(C)CC(=O)N[C@@H](C)C(=O)N1CCC[C@H]1C(=O)N[C@@H](C)C(=O)N[C@@H](CCCCNC(=O)COCCOCCNC(=O)COCCOCCNC(=O)CC[C@H](NC(=O)CCCCCCCCCCCCCCCCC(=O)O)C(=O)O)C(=O)N1CCC[C@H]1C(=O)N[C@@H](CCC(=O)O)C(=O)N[C@@H](CCC(=O)O)C(=O)N[C@@H](CC(=O)O)C(=O)N[C@@H](C)C(=O)N[C@@H](CCC(=O)O)C(=O)N1CCC[C@H]1C(=O)N[C@@H](CCC(=O)O)C(=O)N[C@@H](CCC(=O)O)C(=O)N[C@@H](CC(C)C)C(=O)N[C@@H](CCC(N)=O)C(=O)N[C@@H](CCCNC(=N)N)C(=O)N[C@@H](Cc1ccc(O)cc1)C(=O)N[C@@H](Cc1ccc(O)cc1)C(=O)N[C@H](C(=O)N[C@@H](CO)C(=O)N[C@@H](CC(C)C)C(=O)N[C@@H](CCCNC(=N)N)C(=O)N[C@@H](Cc1c[nH]cn1)C(=O)N[C@@H](Cc1ccc(O)cc1)C(=O)N[C@@H](Cc1ccc(O)cc1)C(=O)N[C@@H](CC(N)=O)C(=O)N[C@@H](Cc1c[nH]c2ccccc12)C(=O)N[C@@H](CC(C)C)C(=O)N[C@H](C(=O)N[C@@H](CCCNC(=N)N)C(=O)N[C@@H](CCC(N)=O)C(=O)N[C@@H](CCCNC(=N)N)C(=O)N[C@@H](Cc1ccc(O)cc1)C(N)=O)[C@@H](C)O)C(C)C` [Compound 174, N{alpha-4}-(3-methylbutanoyl)-N{epsilon-7}-[2-(2-{2-[2-(2-{2-[(4S)-4-carboxy-4-(17-carboxyheptadecanamido)butanamido]ethoxy}ethoxy)acetamido]ethoxy}ethoxy)acetamido]-[4A,6A,7K,9E,13E,18Q,22V,28Y,30W,31L]hPYY (4-36)], in experiment [1], the inhibition constant (Ki) worked out at 3.89 nM. For the same compound, in experiment [2], the “Acute Food Intake 24 h [% vehicle]” value was found to be 41 % vehicle.
Regarding `CC(C)CC(=O)N[C@@H](C)C(=O)N1CCC[C@H]1C(=O)N[C@@H](CCC(=O)O)C(=O)N[C@@H](CCCCNC(=O)COCCOCCNC(=O)COCCOCCNC(=O)CC[C@H](NC(=O)CCCCCCCCCCCCCCCCC(=O)O)C(=O)O)C(=O)N1CCC[C@H]1C(=O)N[C@@H](CCC(=O)O)C(=O)N[C@@H](CCC(=O)O)C(=O)N[C@@H](CC(=O)O)C(=O)N[C@@H](C)C(=O)N[C@@H](CO)C(=O)N[C@@H](CCC(=O)O)C(=O)N[C@@H](CCC(=O)O)C(=O)N[C@@H](CCC(=O)O)C(=O)N[C@@H](CC(C)C)C(=O)N[C@@H](CCC(N)=O)C(=O)N[C@@H](CCCNC(=N)N)C(=O)N[C@@H](Cc1ccc(O)cc1)C(=O)N[C@@H](Cc1ccc(O)cc1)C(=O)N[C@H](C(=O)N[C@@H](CO)C(=O)N[C@@H](CC(C)C)C(=O)N[C@@H](CCCNC(=N)N)C(=O)N[C@@H](Cc1c[nH]cn1)C(=O)N[C@@H](Cc1ccc(O)cc1)C(=O)N[C@@H](Cc1ccc(O)cc1)C(=O)N[C@@H](CC(N)=O)C(=O)N[C@@H](Cc1c[nH]c2ccccc12)C(=O)N[C@@H](CC(C)C)C(=O)N[C@H](C(=O)N[C@@H](CCCNC(=N)N)C(=O)N[C@@H](CCC(N)=O)C(=O)N[C@@H](CCCNC(=N)N)C(=O)N[C@@H](Cc1ccc(O)cc1)C(N)=O)[C@@H](C)O)C(C)C` [Compound 176, N{alpha-4}-(3-methylbutanoyl)-N{epsilon-7}-[2-(2-{2-[2-(2-{2-[(4S)-4-carboxy-4-(17-carboxyheptadecanamido)butanamido]ethoxy}ethoxy)acetamido]ethoxy}ethoxy)acetamido]-[4A,7K,9E,14E,18Q,22V,28Y,30W,31L]hPYY (4-36)], in experiment [1], the inhibitory constant (Ki) came to 3.05 nM. Further, the “Acute Food Intake 24 h [% vehicle]” value in experiment [2] is reported as 52 % vehicle.
Take `CC(C)CC(=O)N[C@@H](C)C(=O)N1CCC[C@H]1C(=O)N[C@@H](CCC(=O)O)C(=O)N[C@@H](CCCCNC(=O)COCCOCCNC(=O)COCCOCCNC(=O)CC[C@H](NC(=O)CCCCCCCCCCCCCCCCC(=O)O)C(=O)O)C(=O)N1CCC[C@H]1C(=O)N[C@@H](CCC(=O)O)C(=O)N[C@@H](CCC(=O)O)C(=O)N[C@@H](CC(=O)O)C(=O)N[C@@H](C)C(=O)N[C@@H](CO)C(=O)N1CCC[C@H]1C(=O)N[C@@H](CCC(=O)O)C(=O)N[C@@H](CCC(=O)O)C(=O)N[C@H](C(=O)N[C@@H](CCC(N)=O)C(=O)N[C@@H](CCC(N)=O)C(=O)N[C@@H](Cc1ccc(O)cc1)C(=O)N[C@@H](Cc1ccc(O)cc1)C(=O)N[C@H](C(=O)N[C@@H](CO)C(=O)N[C@@H](CC(C)C)C(=O)N[C@@H](CCCNC(=N)N)C(=O)N[C@@H](Cc1c[nH]cn1)C(=O)N[C@@H](Cc1ccc(O)cc1)C(=O)N[C@@H](Cc1ccc(O)cc1)C(=O)N[C@@H](CC(N)=O)C(=O)N[C@@H](Cc1c[nH]c2ccccc12)C(=O)N[C@@H](CC(C)C)C(=O)N[C@H](C(=O)N[C@@H](CCCNC(=N)N)C(=O)N[C@@H](CCC(N)=O)C(=O)N[C@@H](CCCNC(=N)N)C(=O)N[C@@H](Cc1ccc(O)cc1)C(N)=O)[C@@H](C)O)C(C)C)[C@@H](C)O` [Compound 180, N{alpha-4}-(3-methylbutanoyl)-N{epsilon-7}-[2-(2-{2-[2-(2-{2-[(4S)-4-carboxy-4-(17-carboxyheptadecanamido)butanamido]ethoxy}ethoxy)acetamido]ethoxy}ethoxy)acetamido]-[4A,7K,9E,17T,18Q,19Q,22V,28Y,30W,31L]hPYY (4-36)]: in experiment [1], the inhibitory constant (Ki) stood at 3.85 nM. In addition, the “Acute Food Intake 24 h [% vehicle]” value in experiment [2] is 74 % vehicle.
In the case of `CC(C)CC(=O)N[C@@H](C)C(=O)N1CCC[C@H]1C(=O)N[C@@H](CCC(=O)O)C(=O)N[C@@H](CCCCNC(=O)COCCOCCNC(=O)COCCOCCNC(=O)CC[C@H](NC(=O)CCCCCCCCCCCCCCCCC(=O)O)C(=O)O)C(=O)N1CCC[C@H]1C(=O)N[C@@H](CCC(=O)O)C(=O)N[C@@H](CCC(=O)O)C(=O)N[C@@H](CCC(=O)O)C(=O)N[C@@H](C)C(=O)N[C@@H](CO)C(=O)N1CCC[C@H]1C(=O)N[C@@H](CCC(=O)O)C(=O)N[C@@H](CCC(=O)O)C(=O)N[C@@H](CC(C)C)C(=O)N[C@@H](CCC(N)=O)C(=O)N[C@@H](CCCNC(=N)N)C(=O)N[C@@H](Cc1ccc(O)cc1)C(=O)N[C@@H](Cc1ccc(O)cc1)C(=O)N[C@H](C(=O)N[C@@H](CCC(=O)O)C(=O)N[C@@H](CC(C)C)C(=O)N[C@@H](CCCNC(=N)N)C(=O)N[C@@H](Cc1c[nH]cn1)C(=O)N[C@@H](Cc1ccc(O)cc1)C(=O)N[C@@H](Cc1ccc(O)cc1)C(=O)N[C@@H](CC(N)=O)C(=O)N[C@@H](Cc1c[nH]c2ccccc12)C(=O)N[C@@H](CC(C)C)C(=O)N[C@H](C(=O)N[C@@H](CCCNC(=N)N)C(=O)N[C@@H](CCC(N)=O)C(=O)N[C@@H](CCCNC(=N)N)C(=O)N[C@@H](Cc1ccc(O)cc1)C(N)=O)[C@@H](C)O)C(C)C` [Compound 185, N{alpha-4}-(3-methylbutanoyl)-N{epsilon-7}-[2-(2-{2-[2-(2-{2-[(4S)-4-carboxy-4-(17-carboxyheptadecanamido)butanamido]ethoxy}ethoxy)acetamido]ethoxy}ethoxy)acetamido]-[4A,7K,9E,11E,18Q,22V,23E,28Y,30W,31L]hPYY (4-36)], the inhibition constant Ki in experiment [1] turned out to be 3.58 nM. The “Acute Food Intake 24 h [% vehicle]” value in experiment [2] is 39 % vehicle.
